In patent US20150265680A1, “THERAPEUTIC AGENT FOR AMYOTROPHIC LATERAL SCLEROSIS” (DAIICHI SANKYO COMPANY, LIMITED, priority 2012, published 2015):
Marks after values point to notes of the source that are not given here. Where a SMILES comes first, the peptide text is derived from it. Where no end group is shown, it is not given here. [ ]: non-standard residue; d: D form. The star is where a group is joined. d2Nal = N[C@H](Cc1ccc2ccccc2c1)C(=O)O; Octanoyl = CCCCCCCC(=O)*

Legend:
SOD1^G93A mice [1] = experiment: Repeated subcutaneous GHRP-6 or anamorelin from the age of 10 weeks: body weight, food intake, survival (Example 9); format: in vivo, mouse; conditions: mean ± SE; for Survival period: 1 mg/kg subcutaneously twice a day from age 10 weeks until death; for Amount of change in body weight / Food intake: 1 mg/kg subcutaneously twice a day from age 10 weeks, after 5-weeks of administration
Method: In the experiment, 10-week-old SOD1^G93A mice were used, which were divided into 3 groups: a vehicle group, a GHRP-6 group, and an anamorelin group. GHRP-6 (1 mg/kg), anamorelin (1 mg/kg), or a vehicle (5% mannitol solution) was subcutaneously administered thereto twice a day from the age of 10 weeks until death. Their body weight and feed weight were measured before the start of administration and after 5-weeks of administration to calculate the amount of change in body weight and food intake. The survival period of each individual was also analyzed.

SOD1^G93A mice [2] = experiment: Continuous subcutaneous human ghrelin from the age of 10 weeks: body weight, food intake, skeletal muscle mass, cholesterol, muscle strength, survival (Example 3); format: in vivo, mouse
Method: In some Examples, the WT mice were also used.
(§1) In the experiment, 10-week-old SOD1^G93A mice were used, which were divided into 2 groups: a vehicle group and a human ghrelin group. Human ghrelin (50 μg/day, approximately 2 mg/kg/day) was dissolved in a vehicle (saline solution) to prepare a dosing solution. An osmotic pump (ALZET® MINI-OSMOTIC PUMP MODEL 1004, DURECT Corporation) filled with the dosing solution or a saline solution was subcutaneously implanted into the back of each mouse for continuous subcutaneous administration. The administration was started from the age of 10 weeks and continued to the live individuals with the osmotic pump replaced with a fresh one every 4 weeks.
Their body weight and feed weight was measured before the start of administration and after 8-weeks of administration to calculate the amount of change in body weight and the food intake. After 8-weeks of administration, the lower-body skeletal muscle masses of the mice were measured using X-ray CT (Latheta LCT-200, Hitachi Aloka Medical, Ltd.). The plasma total cholesterol concentrations were measured with Cholesterol E—Test Wako (Wako Pure Chemical Industries, Ltd.) using plasma separated from blood collected from the tail vein after 8-weeks of administration. The forelimb muscle strengths were measured using a rat/mouse simple sthenometer; 200 g scale (O'HARA & CO., LTD.) on the 16th week of age. The survival period of each individual was also analyzed.

SOD1^G93A mice [3] = experiment: Motor neuron protective effect of continuous subcutaneous human ghrelin, Nissl-stained T9 spinal cord sections (Example 4); format: in vivo, mouse; conditions: relative to WT control group = 100%; 50 μg/day continuous subcutaneous, 7 weeks after start, T9 anterior horn; mean ± SE
Method: In the experiment, 10-week-old SOD1^G93A and WT mice were used. […] Vehicle-administered WT mice were used as a control group. Human ghrelin (50 μg/day, approximately 2 mg/kg/day) was dissolved in a vehicle (saline solution) to prepare a dosing solution. An osmotic pump (ALZET® MINI-OSMOTIC PUMP MODEL 1004, DURECT Corporation) filled with the dosing solution or a saline solution was subcutaneously implanted into the back of each mouse for continuous subcutaneous administration. The administration was started from the age of 10 weeks and continued after replacement of the osmotic pump with a fresh one 4 weeks later. Seven weeks after the start of administration, the mice were anatomized, and the T9 regions of their spinal cords were extracted. Nissl-stained sections were prepared, and the number of motor neurons was histologically identified. Three non-adjacent sections were used per individual to measure the number of motor neurons present in the anterior horn. The measurement value of each group was calculated as a relative value when the average number of motor neurons in the control group was defined as 100%.

SOD1^G93A mice [4] = experiment: Repeated subcutaneous human ghrelin from the age of 10 weeks: body weight, food intake, muscle strength, survival (Example 5); format: in vivo, mouse
Method: In the experiment, 10-week-old SOD1^G93A mice were used, which were divided into 2 groups: a vehicle group and a human ghrelin group. Human ghrelin (1 mg/kg) or a vehicle (5% mannitol solution) was subcutaneously administered thereto twice a day from the age of 10 weeks until death. Their body weights and feed weights were measured before the start of administration and after 8-weeks of administration to calculate the amount of change in body weights and the food intakes. The forelimb muscle strengths were measured using a rat/mouse simple sthenometer; 200 g scale (O'HARA & CO., LTD.) before the start of administration and after 8-weeks of administration. The survival period of each individual was also analyzed.

SOD1^G93A mice [5] = experiment: Continuous subcutaneous human ghrelin under restricted feeding: body weight, skeletal muscle, motor neurons, muscle strength (Example 6); format: in vivo, mouse; conditions: 50 μg/day continuous subcutaneous
Text: In this Example, SOD1^G93A mice were raised under restricted feeding by which the daily food intake of the SOD1^G93A mice under voluntary intake conditions was set to approximately 90%. […] The administered ghrelin was examined for its effects on body weight, skeletal muscle mass, muscle strength, the number of motor neurons, and mRNA expression of Atrogin-1 and Muscle RING-finger protein-1 (MuRF1), which are both involved in skeletal muscle wasting.
(§2) In the experiment, 10-week-old SOD1^G93A and WT mice were used. The WT mice were divided into 2 group, one of which was raised under voluntary intake conditions (WT-control group) and the other of which was given 2.8 to 2.9 g/day which corresponded to approximately 90% of the daily food intake under voluntary intake conditions of the SOD1^G93A mice (WT-restricted feeding group).
(§3) Human ghrelin (50 μg/day, approximately 2 mg/kg/day) was dissolved in a vehicle (saline solution) to prepare a dosing solution. An osmotic pump (ALZET® MINI-OSMOTIC PUMP MODEL 1004, DURECT Corporation) filled with the dosing solution or a saline solution was subcutaneously implanted into the back of each mouse for continuous subcutaneous administration. The administration was started from the age of 10 weeks, and the osmotic pump was replaced with a fresh one 4 weeks later.
Their body weights were measured at the start day of administration and after 6 weeks to calculate the amount of change in body weight.
The forelimb muscle strength was measured using a rat/mouse simple sthenometer; 200 g scale (O'HARA & CO., LTD.) 7 weeks after the start of administration.
The lower-body skeletal muscle masses of the mice were measured using X-ray CT (Latheta LCT-200, Hitachi Aloka Medical, Ltd.) before the start of administration (at the age of 10 weeks) and after 7 weeks to determine the amount of change in skeletal muscle mass.
Then, the mice were anatomized, and the T9 regions of their spinal cords were extracted. Nissl-stained sections were prepared, and the number of motor neurons was histologically identified. Three non-adjacent sections were used per individual to measure the number of motor neurons present in the anterior horn. The measurement value of each group was calculated as a relative value when the average number of motor neurons in the WT-control group was defined as 100%.

Atrogin-1 mRNA = Atrogin-1 mRNA expression in gastrocnemial muscle by quantitative PCR under restricted feeding (Example 6); format: in vivo, mouse; conditions: relative to WT-control group = 100%, 7 weeks after start
Method: as §2, §3
(§4) The gastrocnemial muscles were isolated, and after mRNA extraction, the Atrogin-1 and MuRF1 mRNA expression levels were measured by quantitative PCR. The measurement value of each group was calculated as a relative value when the average mRNA expression level in the WT-control group was defined as 100%.

MuRF1 mRNA = MuRF1 mRNA expression in gastrocnemial muscle by quantitative PCR under restricted feeding (Example 6); format: in vivo, mouse; conditions: relative to WT-control group = 100%, 7 weeks after start
Method: as §2, §3, §4

SOD1^G93A mice [6] = experiment: Survival period with continuous subcutaneous human ghrelin from the age of 16 weeks (Example 8); format: in vivo, mouse; conditions: 50 μg/day continuous subcutaneous from age 16 weeks
Method: as §1, with “experiment, 16-week-old” for “experiment, 10-week-old”, “of 16” for “of 10”, “weeks. The survival period of each individual was analyzed.” for “weeks.”

[7] = system: rat adrenal pheochromocytoma-derived PC-12 cells; conditions: cited from earlier work
[8] = 50 μg/day continuous subcutaneous from age 10 weeks, after 8-weeks of administration, mean ± SE
[9] = 1 mg/kg subcutaneously twice a day from age 10 weeks, after 8-weeks of administration, mean ± SE

In the case of `C[C@H](NC(=O)[C@@H](Cc1c[nH]c2ccccc12)NC(=O)[C@@H](N)Cc1c[nH]cn1)C(=O)N[C@@H](Cc1c[nH]c2ccccc12)C(=O)N[C@H](Cc1ccccc1)C(=O)N[C@@H](CCCCN)C(N)=O` [GHRP-6, L-Histidyl-D-tryptophyl-L-alanyl-L-tryptophyl-D-phenylalanyl-L-lysinamide] (H-H[dW]AW[dF]K-NH2), the Survival period (SOD1^G93A mice [1]) is reported as 138 ± 2 (30) day, the “Amount of change in body weight” value (SOD1^G93A mice [1]) is reported as 1.9 ± 0.2 (30) g and the Food intake (SOD1^G93A mice [1]) is reported as 142.7 ± 2.1 (30) g.

With “Human ghrelin: peptide of 28 amino acids (SEQ ID NO: 1), hydroxy group of the 3rd residue (serine) acylated with n-octanoyl group; endogenous GHS-R ligand (GSS(Octanoyl)FLSPEHQRVQQRKESKKPPAKLQPR; listed as Homo sapiens)” the “Survival period longer on average than the survival days of the vehicle group” value (“Survival period longer” below) (SOD1^G93A mice [2]; 50 μg/day continuous subcutaneous from age 10 weeks) was 13.8%, the “Amount of change in body weight” value (SOD1^G93A mice [2]; [8]) was 2.6 ± 0.4 (15) g and the Food intake (SOD1^G93A mice [2]; [8]) was 188.2 ± 3.6 (15) g. The Survival period (SOD1^G93A mice [2]; 50 μg/day continuous subcutaneous from age 10 weeks, mean ± SE) was 173 ± 4 (15) day, the Forelimb muscle strength (SOD1^G93A mice [2]; 50 μg/day continuous subcutaneous, after 6-weeks of administration (16th week of age), mean ± SE) was 0.96 ± 0.05 (15) N and the “Lower-body skeletal muscle mass” value (SOD1^G93A mice [2]; 50 μg/day continuous subcutaneous, after 8-weeks of administration, X-ray CT, mean ± SE) was 5.7 ± 0.3 (15) g. For the same compound, the “Plasma total cholesterol concentration” value (SOD1^G93A mice [2]; 50 μg/day continuous subcutaneous, after 8-weeks of administration, mean ± SE) was 85.8 ± 4.0 (15) mg/dL, the “The number of motor neurons” value (SOD1^G93A mice [3]) was 84 ± 7 (7)*^,## % and the “Survival period longer” value (SOD1^G93A mice [4]; 1 mg/kg subcutaneously twice a day from age 10 weeks) was 21.8%. The Survival period (SOD1^G93A mice [4]; 1 mg/kg subcutaneously twice a day from age 10 weeks until death, mean ± SE) was 179 ± 8 (13) day, the “Amount of change in body weight” value (SOD1^G93A mice [4]; [9]) was 2.1 ± 0.4 (13) g and the Food intake (SOD1^G93A mice [4]; [9]) was 176.2 ± 3.5 (13) g. The “Change in forelimb muscle strength” value (SOD1^G93A mice [4]; 1 mg/kg subcutaneously twice a day, from age 10 weeks to after 8-weeks of administration, mean ± SE) was −0.08 ± 0.07 (13) N, the “The number of motor neurons” value (SOD1^G93A mice [5]; relative to WT-control group = 100%, restricted feeding, T9 anterior horn) was 66 ± 5 % and the “Amount of change in body weight” value (SOD1^G93A mice [5]; restricted feeding 2.8 to 2.9 g/day, 6 weeks after start) was −1.4 ± 0.7**^,## g. For the same compound, the Forelimb muscle strength (SOD1^G93A mice [5]; restricted feeding, 7 weeks after start) was 0.77 ± 0.06 N, the “Amount of change in lower-body skeletal muscle” value (SOD1^G93A mice [5]; restricted feeding, 7 weeks after start, X-ray CT) was −0.9 ± 0.2**^,# g and the “Atrogin 1 mRNA expression level” value (Atrogin-1 mRNA) was 205 ± 34 %. The “MuRF1 mRNA expression level” value (MuRF1 mRNA) was 207 ± 36 %, the “Survival period longer” value (SOD1^G93A mice [6]) was 17.6% and the Survival period (SOD1^G93A mice [6]; mean ± SE) was 180 ± 11 (9) day.

In the case of `C[C@H](NC(=O)[C@@H](Cc1ccc2ccccc2c1)NC(=O)[C@@H](C)N)C(=O)N[C@@H](Cc1c[nH]c2ccccc12)C(=O)N[C@H](Cc1ccccc1)C(=O)N[C@@H](CCCCN)C(N)=O` [Pralmorelin, D-Alanyl-D-(2-naphthyl)alanyl-L-alanyl-L-tryptophyl-D-phenylalanyl-L-lysinamide] (H-[dA][d2Nal]AW[dF]K-NH2), the “Increase of the proportion of PC-12 cells having dendrites and axons 1.5 times larger than the size of the cells, compared with a control group” value [7] is given as “approximately 1.2 times”.

In the case of `CN(C)N(C)C(=O)[C@@]1(Cc2ccccc2)CCCN(C(=O)[C@@H](Cc2c[nH]c3ccccc23)NC(=O)C(C)(C)N)C1` [Anamorelin, 2-Amino-N-{(1R)-2-[3-benzyl-3-(N,N′,N′-trimethylhydrazinocarbonyl)piperidin-1-yl]-1-((1H-indol-3-yl)-2-oxoethyl)-2-methylpropionamide}], the Survival period (SOD1^G93A mice [1]) is reported as 136 ± 2 (31) day, the “Amount of change in body weight” value (SOD1^G93A mice [1]) is reported as 0.9 ± 0.2 (31) g and the Food intake (SOD1^G93A mice [1]) is reported as 139.5 ± 2.5 (31) g.
